Peptide text beside a SMILES is read from it. * marks the point of attachment. Cbz = O=C(OCc1ccccc1)*; CH2F = FC*
What was measured:
Type in all cases: cell-based, human
A375 cells = assay: EtHD cell death with or without protease inhibitors, A375; details: A375, delta-PK moi=0.5, 72 hrs p.i.; PD150606 100 μM or z-VAD-fmk 20 μM
Experimental: (§1) FIG. 7. Delta-PK induced melanoma cell death is both calpain and caspase-dependent. A. A2058 cells were infected with delta-PK (moi=0.5) or mock-infected with PBS and cultured without or with PD150606 (100 μM), z-VAD-fmk (20 µM) or both PD150606 and z-VAD-fmk. DMSO (28 mM) was used as vehicle control. Replicate cultures (n=3) were stained with EtHD at various times p.i. and the % staining cells calculated. B. A375 cells were infected with delta-PK (moi=0.5) in the absence or presence of inhibitors and stained with EtHD+. Delta-PK infected WI-38 cells and mock infected DMSO treated cells served as controls.
(§2) Cell death was determined by trypan blue exclusion and staining with ethidium homodimer-1 (EtHD), a cell impermeable red fluorescent nuclear stain that increases intensity after binding to the DNA of dead cells. […] Dead cells were counted by four independent hemacytometer counts. […] Stained cells were counted in five randomly selected 3 mm^2 fields (≧250 cells each), and the % positive cells was calculated relative to total number of cells imaged by phase contrast microscopy (Gober M D, Laing J M, Thompson S M, Aurelian L. The growth compromised HSV-2 mutant DeltaRR prevents kainic acid-induced apoptosis and loss of function in organotypic hippocampal cultures. Brain Res 2006; 1119: 26-39). […]

[1] = system: melanoma cultures (A2058, MeWo, SM, A375); assay: Virus growth by plaque assay (burst size) in melanoma cultures; details: delta-PK infected melanoma cultures
Experimental: FIG. 3. Delta-PK is a growth-restricted replication competent oncolytic virus. A. Vero cells were infected with HSV-2, delta-PK, or HSV-2(R) (moi=0.5) in serum-free medium and virus titers were determined by plaque assay. Results are expressed as mean pfu/cell (burst size). B. A2058, MeWo, SM, A375 and Wi-38 cells were infected with delta PK and examined for virus growth. […] C. Delta-PK infected A2058 and WI-38, cells were stained with Alexafluor-488 labeled ICP10 and Alexafluor-594 labeled VP5 antibodies in double immunofluorescence. Cells were counted in 3 randomly selected fields (≧250 cells) and the % staining cells calculated relative to total cells identified by DAPI staining. Quantitative results are shown for A2058 cell at 4-72 hrs p.i., and for WI-38 cells at 48 hrs p.i. Similar results were obtained for the partially purified virus.
To measure virus replication in culture, cells were infected at a multiplicity of infection (moi) of 0.5 pfu/cell. Adsorption was for 1 hr at 4 degrees C. (synchronized infection). […] Virus titers were determined by plaque assay on Vero cells and the results are expressed as mean pfu/cell (burst size), as described (Li B, Smith C C, Laing J M, Gober M D, Liu L, Aurelian L. Overload of the heat-shock protein H11/HspB8 triggers melanoma cell apoptosis through activation of transforming growth factor-beta-activated kinase 1. Oncogene 2007; 26: 3521-3531). […]

A2058 cells = assay: EtHD cell death with or without protease inhibitors, A2058; details: A2058, delta-PK moi=0.5, 72 hrs p.i.; PD150606 100 μM or z-VAD-fmk 20 μM
Experimental: as §1, §2

| Compound | % EtHD+ cells in delta-PK infected cultures in presence of inhibitor (A375 cells) | effect of inhibitor on virus growth [1] | % EtHD+ cells in delta-PK infected cultures in presence of inhibitor (A2058 cells) |
| --- | --- | --- | --- |
| O=C(O)/C(S)=C/c1ccc(I)cc1 [PD150606] | 49.1+/−2.5% | neither PD150606, nor z-VAD-fmk had any effect | 30.7+/−2.8% |
| COC(=O)C[C@H](NC(=O)[C@H](C)NC(=O)[C@@H](NC(=O)OCc1ccccc1)C(C)C)C(=O)CF [z-VAD-fmk, benzyloxcarbonyl-Val-Ala-Asp-fluormethyl ketone] (Cbz-Val-Ala-Asp(OMe)-CH2F) | 49.6+/−3.7% | neither PD150606, nor z-VAD-fmk had any effect | 35.8+/−2.5% |

Reference: patent publication US8414885B2, “Methods and compositions for treating cancer” (priority 2009, dated 2013)
